Data reported in ChEMBL document CHEMBL2150853 (Eur J Med Chem, 2011).

How the values were obtained:
[1] = Effective permeability of the compound at pH 7.4 at 30 to 50 uM by PAMPA assay; assay type: ADME; details: read-out: Peff
[2] = Solubility of the compound in phosphate buffer at 50 uM; assay type: physicochemical
[3] = Antiprion activity against mouse prion protein 22L infected mouse N167 cells assessed as reduction of PrPSc level by Western blot method; assay type: cell-based
[4] = Antiprion activity against mouse prion protein RML infected mouse ScN2a cells assessed as reduction of PrPSc level by Western blot method; assay type: cell-based
[5] = test system: N167; assay: Antiprion activity against mouse prion protein 22L infected mouse N167 cells assessed as drug level required for more than 99 percent reduction of PrPSc level by Western blot method; assay type: cell-based
[6] = Cytotoxicity against mouse N2A cells assessed as maximal tolerant concentration; assay type: cell-based; details: read-out: MTD
[7] = test system: ScN2a; assay: Antiprion activity against mouse prion protein RML infected mouse ScN2a cells assessed as drug level required for more than 99 percent reduction of PrPSc level by Western blot method; assay type: cell-based
[8] = test system: N2a #58 F3; assay: Antiprion activity against human prion protein Fukuoka-1 infected mouse F3 cells assessed as drug level required for more than 99 percent reduction of PrPSc level by Western blot method; assay type: cell-based
[9] = Antiprion activity against human prion protein Fukuoka-1 infected mouse F3 cells assessed as reduction of PrPSc level by Western blot method; assay type: cell-based; details: N2a #58 F3
[10] = target: Major prion protein (Homo sapiens) (UniProt P04156); assay: Binding affinity to truncated human PrP 121-231 at 50 uM by surface plasmon resonance method
[11] = test system: MDCK; assay: Permeability from apical to basolateral side of in wild type MDCK cells assessed as cell retention at 10 uM after 2 hrs; assay type: ADME, cell-based, Canis lupus familiaris; details: dog
[12] = test system: MDCK; assay: Permeability from basolateral to apical side of in P-glycoprotein-mediated MDCK cells over expressing human MDR1 assessed as cell retention at 10 uM after 2 hrs; assay type: ADME, cell-based, Canis lupus familiaris; details: dog
[13] = test system: MDCK; assay: Permeability from apical to basolateral side of in P-glycoprotein-mediated MDCK cells over expressing human MDR1 assessed as cell retention at 10 uM after 2 hrs; assay type: ADME, cell-based, Canis lupus familiaris; details: dog
[14] = test system: human MDR1; assay type: ADME, cell-based, Canis lupus familiaris; details: dog, MDCK-MDR1
[15] = test system: MDCK; assay type: ADME, cell-based, Canis lupus familiaris; details: dog, 2 h, 10 µM
[16] = test system: MDCK; assay type: ADME, cell-based, Canis lupus familiaris; details: dog, 2 h, 10 µM; remark: listed apart in the source
[17] = test system: MDCK; assay: Permeability from basolateral to apical side of in wild type MDCK cells assessed as adsorption on transwell at 10 uM after 2 hrs; assay type: ADME, cell-based, Canis lupus familiaris; details: dog
[18] = test system: MDCK; assay: Permeability from apical to basolateral side of in wild type MDCK cells assessed as adsorption on transwell at 10 uM after 2 hrs; assay type: ADME, cell-based, Canis lupus familiaris; details: dog
[19] = test system: MDCK; assay: Permeability from basolateral to apical side of in wild type MDCK cells assessed as cell retention at 10 uM after 2 hrs; assay type: ADME, cell-based, Canis lupus familiaris; details: dog
[20] = test system: human MDR1; assay type: ADME, cell-based, Canis lupus familiaris; details: dog, MDCK-MDR1; remark: listed apart in the source

Row | SMILES | Papp at up to 50 µM [1] | EC50 [3] | EC50 [4] | Activity [5] | MNTC [6] | Activity [7] | Activity [8] | EC50 [9] | RUmax [10] | further results
1 | COc1ccc2nc3cc(Cl)ccc3c(NC3CC4CCC(C3)N4Cc3ccccc3)c2c1 (stereo not given) | 8.31 ×10⁻⁶ cm/s | 350 nM | 54 nM | 1 µM | 2 µM | 2 µM | 1.5 µM | 540 nM |  | solubility [2]: Insoluble
2 | Clc1ccc2c(NC3CCN(Cc4ccccc4)CC3)ccnc2c1 |  | 230 nM | 150 nM | 2 µM | > 10 µM | 1 µM | 3 µM | 1200 nM | 114% | 
3 | COc1ccc2nc3cc(Cl)ccc3c(NC3CCN(Cc4ccccc4)CC3)c2c1 |  | 490 nM | 420 nM | 1.5 µM | 2 µM | 1 µM |  | 800 nM | 65.4% | 
4 | COc1ccc2nc3cc(Cl)ccc3c(Nc3ccccc3)c2c1 |  |  | 540 nM |  | 5 µM |  |  |  |  | solubility [2]: Insoluble
5 | COc1ccc2nc3cc(Cl)ccc3c(Nc3ccc(C(=O)N4CCN(C)CC4)cc3)c2c1 |  | 4200 nM | 1230 nM | 7 µM | 12 µM | 5 µM |  | 4100 nM | 232% | 
6 | COc1ccc(CN2CCC(Nc3c4ccc(Cl)cc4nc4ccc(OC)cc34)CC2)cc1 | 7.54 ×10⁻⁶ cm/s | 520 nM | 82 nM | 2 µM | 10 µM | 1.5 µM |  |  | 160% | 
7 | CCN(CC)CCCNc1c2ccc(Cl)cc2nc2ccc(OC)cc12 | 22 ×10⁻⁶ cm/s |  |  |  |  |  |  |  | 162% | 
8 | COc1ccc2nc3cc(Cl)ccc3c(NC3CCN(CCCc4ccccc4)CC3)c2c1 |  | 320 nM | 93 nM | 1 µM | 4 µM | 1 µM | 3 µM | 1040 nM | 115% | 
9 | COc1ccc2nc3cc(Cl)ccc3c(NC3CCN(Cc4ccc(Cl)cc4)CC3)c2c1 | 15.5 ×10⁻⁶ cm/s | 340 nM | 280 nM | 3 µM | 12 µM | 1 µM |  |  | 98.3% | 
10 | COc1ccc2nc3cc(Cl)ccc3c(NC3CCN(CCc4ccc(C)cc4)CC3)c2c1 | 7.39 ×10⁻⁶ cm/s | 300 nM | 76 nM | 1 µM | 3 µM | 1 µM | 3 µM | 690 nM | 148% | 
11 | Clc1ccc2c(NC3CCN(Cc4ccccc4)CC3)c3c(nc2c1)CCCC3 |  | 420 nM | 540 nM | 3 µM | 5 µM | 1 µM | 5 µM | 1190 nM | 138% | 
12 | COc1ccc2nc3cc(Cl)ccc3c(Nc3ccc(CN4CCCCC4)cc3)c2c1 | 5.28 ×10⁻⁶ cm/s | 510 nM | 99 nM | 1 µM | 5 µM | 0.5 µM | 3 µM | 640 nM | 144% | 
13 | C=C[C@H]1C[N@@]2CC[C@H]1C[C@@H]2[C@@H](O)c1ccnc2ccc(OC)cc12 [QUINIDINE] |  |  |  |  |  |  |  |  |  | Papp [1]: 11.5 ×10⁻⁶ cm/s
14 | CN1CCN(c2ccc(Nc3ccnc4cc(Cl)ccc34)cc2)CC1 |  | 530 nM | 140 nM | 2 µM | 10 µM | 1 µM |  | 2040 nM | 165% | 
15 | COc1ccc2nc3cc(Cl)ccc3c(NCCCN(C)C)c2c1 | 13.3 ×10⁻⁶ cm/s |  |  |  |  |  |  |  | 164% | 
16 | COc1ccc2nc3cc(Cl)ccc3c(NCC#CCN3CCN(C)CC3)c2c1 | 11.5 ×10⁻⁶ cm/s | 990 nM | 27 nM | 3 µM | 8 µM | 1 µM |  |  |  | solubility [2]: Insoluble
17 | COc1ccc2nc3cc(Cl)ccc3c(Nc3ccc(CN4CCN(C)CC4)cc3)c2c1 |  | 350 nM | 60 nM | 2 µM | 4 µM | 0.5 µM | 3 µM | 860 nM | 207% | 
18 | COc1ccc2nc3cc(Cl)ccc3c(NC3CCN(CCc4ccccc4)CC3)c2c1 | 7.68 ×10⁻⁶ cm/s | 230 nM | 130 nM | 1 µM | 2 µM | 0.5 µM | 2 µM | 190 nM | 174% | 
19 | CCN(CC)CCCC(C)Nc1c2ccc(Cl)cc2nc2ccc(OC)cc12 (stereo not given) [QUINACRINE] | 19.3 ×10⁻⁶ cm/s | 590 nM | 230 nM |  | 2.5 µM | 0.8 µM |  |  | 87.3% | permeability [11]: 80.2%; permeability [12]: 24.5%; permeability [13]: 35.5%; Papp B→A at 2 h, 10 µM [14]: 6.7 ×10⁻⁶ cm/s; permeability [15]: 3.9%; permeability [16]: 5.5%; permeability [17]: 3.2%; permeability [18]: 5.3%; permeability [19]: 27.7%; Papp A→B at 2 h, 10 µM [20]: 1.23 ×10⁻⁶ cm/s
20 | CCN(CC)CCCCNc1c2ccc(Cl)cc2nc2ccc(OC)cc12 | 16.4 ×10⁻⁶ cm/s |  |  |  |  |  |  |  | 178% | 
21 | COc1ccc2nc3cc(Cl)ccc3c(NC3CCN(Cc4ccc(C)cc4)CC3)c2c1 |  | 620 nM | 150 nM | 1 µM | 5 µM | 3 µM | 3 µM | 630 nM | 69.8% | 
22 | COc1ccc2nc3cc(Cl)ccc3c(N(C)c3ccccc3)c2c1 |  |  | 2510 nM |  | 8 µM | 5 µM |  |  | 43.2% | 
23 | COc1ccc2nc3cc(Cl)ccc3c(Nc3ccc(N4CCN(C(C)=O)CC4)cc3)c2c1 | 8.79 ×10⁻⁶ cm/s |  | 35 nM |  | 5 µM | 0.1 µM |  |  | 210% | 
24 | CCN(CC)CCNc1c2ccc(Cl)cc2nc2ccc(OC)cc12 | 21 ×10⁻⁶ cm/s |  |  |  |  |  |  |  | 153% | 
25 | Cn1c(=O)c2c(ncn2C)n(C)c1=O [CAFFEINE] | 2.46 ×10⁻⁶ cm/s |  |  |  |  |  |  |  |  | 
26 | CN1CCN(c2ccc(Nc3c4c(nc5cc(Cl)ccc35)CCCC4)cc2)CC1 |  |  | 82 nM |  | > 10 µM | 1 µM |  |  | 127% | 
27 | COc1ccc2nc3cc(Cl)ccc3c(N)c2c1 | 14.8 ×10⁻⁶ cm/s |  |  |  |  |  |  |  | 139% | 
28 | COc1ccc2nc3cc(Cl)ccc3c(NC3CCN(Cc4ccc(C#N)cc4)CC3)c2c1 | 9.15 ×10⁻⁶ cm/s | 140 nM | 550 nM | 1 µM | 5 µM | 1 µM |  |  | 109% | 
29 | CCN1CCN(c2ccc(Nc3c4ccc(Cl)cc4nc4ccc(OC)cc34)cc2)CC1 | 6.13 ×10⁻⁶ cm/s | 960 nM | 80 nM |  | 3 µM | 1 µM |  |  | 194% | 
